Laboratory results published in a melting point compilation (Tetko et al.; mined from patent text by program, amines drawn as free bases though some values may be those of a salt).

Structure (SMILES) | melting point [°C]
O=C1C2CCCN2c2ncccc2N1Cc1ccccc1 (stereo unspecified) | 222 to 225
C=C(Br)c1cc(O)cc2nc(-c3ccc(O)cc3F)oc12 | 235 to 237
Cc1nccnc1C(=O)Nc1ccc(C(C(F)(F)F)C(F)(F)F)c(CC(C)C)c1 | 133 to 134
CN1CCN(c2n[nH]c3cc(F)ccc23)CC1 | 164 to 166
Cc1ccnc(C(=O)c2[nH]c3ccc(Cl)cc3c2CC(=O)O)c1 | 230 to 231
Cc1cc(-c2nnc3c4ccccc4c(OCc4ncn(C)n4)nn23)no1 | 249 to 251
CC12CCC(=O)C=C1CCC1C2=CCC2(C)C1CCC2(O)C(=O)CO (stereo unspecified) | 248
COCCOCCN1C(=O)C2(c3cc4c(cc3OC2OC)OCCO4)c2c(OC)cccc21 (stereo unspecified) | 109 to 110
Cn1c(-c2ccc(Cl)cc2)cc(=O)c(C(=O)O)c1-c1ccc(Cl)cc1 | 187 to 190
c1cc2sc(C3OCCO3)cc2s1 | 88 to 90
CSSc1ccc([N+](=O)[O-])cc1C(Cl)(Cl)Cl | 76
CCSc1ccc(C(=O)NCc2ccc3c(c2)C(=O)N(C2(C)CCC(=O)NC2=O)C3=O)nn1 (stereo unspecified) | 160 to 162
CCSc1nc(=O)n(CC(C)(C)C)c(=O)n1N | 202 to 204
COc1cc(OC)c2c(=O)[nH]c(-c3cc(C)cc(OCCO)c3)nc2c1 | 107 to 109
CC(=O)Nc1ccc(O)c(C(=O)C=Cc2ccccc2)c1 | 162 to 165
COc1cccc(C23CCCC(C2)N(C)C3=O)c1 (stereo unspecified) | 68 to 70
COc1ccc(Cn2nc(-n3cnn(Cc4ccc(F)cc4)c3=O)cc2C(=O)NCc2ccc(F)c(F)c2)cc1 | 156 to 158
COc1ccc2c(c1O)C13CCN(C)C(C2)C1C=C(C)C(=O)C3 (stereo unspecified) | 183 to 185
COC(=O)C(CO)Nc1ccccc1[N+](=O)[O-] (racemic) | 138 to 140
Cn1c(=O)c(-c2ccc(Cl)cc2Cl)cc2c3cc(-c4csc(COC(=O)C(C)(C)C)n4)ccc3n(C)c21 | 193 to 195
CSc1nccc(-c2ssc(=S)c2C)n1 | 170 to 172
COc1ccccc1[C@@]1(O)[C@H](O)CC(c2ccccc2)(c2ccccc2)[C@@H]2CN(C(=O)Cc3ccc4ccccc4c3)C[C@@H]21 (racemic) | 188 to 190
CN(C(=O)Nc1nc(OCC(F)(F)F)cc(OCC(F)(F)F)n1)c1ccc(CC(F)(F)F)s1 | 99 to 101
Cc1cccc(-n2nc(C(F)(F)F)cc2-c2ccc(S(C)(=O)=O)c(F)c2)c1 | 129 to 130
Cc1ccc(-c2cc3cc(Cl)c(Cl)cc3o2)cc1 | 129 to 130
COC(=O)c1cn(C2CC2)c2c(OC)c(N3CCC(CN)(CF)C3)c(F)cc2c1=O (stereo unspecified) | 143 to 145

Structure (SMILES) | melting point [°C]
OCCNC(=S)NC(Cc1cccs1)c1ccccc1 (stereo unspecified) | 109 to 112
OCCc1cc2c(cc1Cc1ccccc1)OCO2 | 64 to 65
Cc1nn(-c2cc3nc(S(=O)Cc4ccccc4)sc3cc2F)c(=O)n1C (stereo unspecified) | 162 to 164
CC(C)(C)Nc1c(Nc2cnc3ccccc3c2)c(=O)c1=O | 257 to 260
CCOP(=O)(OCC)ON=C1C=CC(=C(C#N)c2ccccc2C)S1 | 90 to 91
Cc1cccc(NC(=O)NCC(=O)N(c2ccccc2)C(C(=O)N2CCCC2)c2ccccc2)c1 (racemic) | 138
CCOC(=O)c1n[nH]c2c(=O)[nH]c3cc(Cl)ccc3c(=O)c12 | 290
C[C@]12CCC(=O)C=C1CC[C@@H]1[C@@H]2CC[C@]2(C(F)F)C(=O)CC[C@@H]12 | 183 to 184
CCN1CCN(c2cc3c(cc2Cl)c(=O)c(C(=O)O)cn3CC)CC1 | 245 to 248
CCOC(=O)Cn1cc2c(n1)CCN(C(=O)OC(C)(C)C)C2 | 90 to 91
N#Cc1c(Cl)c2cccnc2[nH]c1=O | 310
COc1ccc(Cl)c(C(N)=O)c1F | 154 to 156
CCCC[C@H](NS(=O)(=O)c1ccc(Br)cc1)C(=S)Nc1ccc(CCC(=O)O)cc1 | 174 to 176
Nc1ccccc1C(=O)N1CCCc2ccccc21 | 102
O=C(NCC1CCCCC1)c1c(Cl)ccc2nc(CCCCc3nnn[nH]3)ccc12 | 90 to 93
CN(C)c1cncc(C#N)c1 | 104
COc1ccc(C(=O)Nc2ccc(-c3ccc(C(C)=O)cc3C)cc2)cc1CCCN(C)C | 110 to 112
COc1cc2c(cc1Nc1ncc(Cl)c(Nc3ccc(C(N)=O)cc3OC)n1)CCN(CCS(C)(=O)=O)CC2 | 207 to 217
COC1(c2ccco2)CC2=C(C=C1C(F)(F)F)N(C(=O)Nc1cccnc1)CC2 (stereo unspecified) | 92 to 94
Nc1nc2ccccc2n1-c1cccc(-c2cccs2)c1 | 142 to 144
CC(C)Nc1nc2c(F)c(F)c(F)cc2n1[C@@H]1O[C@H](C)[C@@H](O)[C@H]1O | 148 to 151
O=C(O)CCC(CCC(=O)O)(CCC(=O)O)C(=O)c1ccc(Cl)cc1 | 135 to 137
CCNC(=O)c1c(Br)cccc1[Si](C)(C)C | 121 to 122
ClCCCOc1ccc(-c2nccs2)cc1 | 72 to 75
Cn1c(C(F)(F)F)cc(=O)n(-c2ncc(Cl)cc2F)c1=O | 133 to 134
O=C(O)CCC=C(c1ccc(F)cc1)c1ccc(F)cc1 | 100

Structure (SMILES) | melting point [°C]
CS(=O)(=O)c1ccc(C(=O)C2=C(O)C3CCC(C3)C2=O)c([N+](=O)[O-])c1 (stereo unspecified) | 170
CSc1nc(Cl)cc(N(C)C)n1 | 102
CC1NC(=O)NN=C1c1cccc(Cl)c1 (stereo unspecified) | 206 to 208
CCCCOC(=O)[C@H]1CN(c2ccc3c(c2)oc(=O)n3C)C(=O)O1 | 182 to 184
CN1CCCC1c1ccc(CCNC(=O)c2ccc(Br)cc2)cc1 (stereo unspecified) | 133 to 134
CNC(=O)C1CN(C(c2ccccc2)c2ccccc2)C1 | 103 to 107
Cc1ccc2nc(-c3ccccc3)oc2c1 | 93
Brc1coc(-c2cn([C@H]3CN4CCC3CC4)nn2)c1 | 129
OCCN1CCC(OC(c2ccccc2)c2ccccc2)CC1 | 83 to 85
Cn1cc(-c2ccccc2)c(=O)c(-c2cccc(S(C)=O)c2)c1 (stereo unspecified) | 161 to 164
CNc1ccc(-c2nc(N3CCOCC3)c3sc(C(C)(C)Nc4ncc(C(=O)NO)cn4)cc3n2)cn1 | 200 to 205
CCOC(=O)c1ccc(N(NC(C)=O)C(=O)OC(C)(C)C)cc1 | 105 to 108
OCC1OC(n2c(Br)nc3c(NCc4ccccc4)ncnc32)C(O)C1O (stereo unspecified) | 96 to 98
C=CCc1cc(F)ccc1OCCCN1CCC2(CC1)C(=O)NCN2c1ccccc1 | 110 to 113
Cc1nc2c(CN3CCOCC3)cc(Cl)nn2c1C(=O)c1ccc(Cl)cc1F | 145 to 147
N#Cc1cnc2cc(Br)sc2c1Cl | 190 to 191
O=C(O)c1ccc(/C=C/c2cnc3ccccc3c2)cc1 | 287 to 290
CC(=Cc1ccccc1)c1ccc2c(c1)C(C)(C)CCC2(C)C | 83 to 85
COc1cc(C)nc(C#N)n1 | 80 to 85
CN(C)c1ccc(-c2ccnc(Nc3ccc4c(c3)OCCO4)c2)cc1 | 154 to 156
N#Cc1c(Cl)c(Cl)n(CC#CI)c1-c1ccc(Cl)c(Cl)c1 | 115 to 116
COc1cc2nc(N3CCC(N4C(=O)C(C)C(C)C4=O)CC3)nc(N)c2cc1OC (stereo unspecified) | 267 to 268
NC1CC(=O)N(Cc2ccccc2)C1=O (stereo unspecified) | 74 to 77
O=S(=O)(c1ccc(-c2ccc(C3COC(c4c(F)cccc4F)=N3)cc2)cc1)C(F)F (stereo unspecified) | 107 to 111
COC(=O)c1ccc2sc(/C=C/c3cccc(N)c3)nc2c1 | 165 to 167
CNC(=O)c1cc(NC(=O)c2ccc(C)c(Nc3nccc(-c4cccnc4)n3)c2)cc(N2CCOCC2)c1 | 153 to 156

Structure (SMILES) | melting point [°C]
COc1ccc(CSc2ccc3c(c2)C=CC(C)(C)O3)cc1 | 58 to 59
COc1ccccc1NC(=S)c1ccc(C)cc1 | 91 to 93
COc1cc(OC)nc(Sc2cnn(C)c2NS(=O)(=O)CC#N)n1 | 147 to 148
FC(F)(F)Cn1c(-c2c(Cl)cccc2Cl)nc(-c2ccncc2)c1-c1ccc(Cl)cc1 | 213 to 214
O=C(Nc1[nH]nc(-c2c(Cl)cc(C(F)(F)F)c(F)c2Cl)c1[N+](=O)[O-])C(Cl)Cl | 115 to 117
CON=C(c1nnn[nH]1)c1ccccc1COc1cc(C)ccc1C | 168 to 170
CCOC(=O)c1cn2c3c(cccc3c1=O)CC2(C)C | 117 to 119
COC(=O)CCC(NC(=O)CCCC#Cc1cnc2nc(NC(=O)C(C)(C)C)nc(O)c2c1)C(=O)OC (stereo unspecified) | 159 to 160
CC(=O)OCSc1ccc2c3c(cccc13)C(=O)N2 | 149 to 154
CC(C)CCN1C(=O)C(NC(=O)Oc2cccc(N(C)C)c2)C(=O)N(c2ccccc2F)c2ccccc21 (stereo unspecified) | 193 to 194
COc1ccc(S(=O)(=O)C(C)(CCCCN2C(=O)c3ccccc3C2=O)C(=O)NO)cc1 (stereo unspecified) | 146 to 148
Cc1cc(-c2ccc(C(F)(F)F)cc2)cnc1N=CN(C)C | 74
c1cc(-c2ccc3nncn3n2)cs1 | 189 to 192
COc1ccc2nc(C3(c4ccc(S(N)(=O)=O)cc4)C=C(C(F)F)NN3)sc2c1 (stereo unspecified) | 211 to 212
O=C(CNc1ccc2[nH]ncc2c1)N1CCC(Cc2ccc(F)cc2)CC1 | 113 to 114
CCCCC/C(=C/C=C/C(=O)Oc1ccc([N+](=O)[O-])cc1)c1cccc(F)c1 | 50 to 51
O=c1oc2ccccc2c2oc(=S)c(-c3ccccc3)cc12 | 256 to 257
CC(=O)Nc1nc(CCc2ccc(NC(=O)OC(C)(C)C)cc2)c(C(=O)O)s1 | 237 to 238
CC(=O)Nc1nccc2cc3cccnc3n12 | 160 to 161
O=C(/C=C/c1ccc(N2CCCCC2)cc1)CC(=O)/C=C/c1ccc2cc[nH]c2c1 | 91 to 96
CCOC(=O)C1[C@@H]2[C@@H](O)[C@@H]3O[C@H](c4ccc(C(C)(C)C)cc4)OC[C@H]3O[C@H]12 (stereo partly specified) | 113 to 116
O=S(=O)(c1ccc(Cl)cc1)C(Cc1ccncc1)c1cc(F)ccc1F (stereo unspecified) | 129
COC(=O)c1cc(Cl)c(Cl)c(-c2cc(C)no2)c1C | 76 to 77
